Data reported in patent publication US8962003B2, “Insect behaviour modifying compounds” (The New Zealand Institute for Plant and Food Research …, priority 2003, dated 2015).

Key:
[1] = test system: Frankliniella occidentalis; experiment: Y-tube olfactometer bioassay; type: in vivo; conditions: female Frankliniella occidentalis
Procedure: The thrips behaviour-modifying activity of a compound may be evaluated in a glass Y-tube olfactometer following the method described by de Kogel et al. (de Kogel, W. J., Koschier, E. H. and Visser, J. H. Proc. Exper. & Appl. Entomol., N. E. V. Amsterdam, (1999) 10, 131-135.) and Koschier et al. (Koschier, E. H., De Kogel, W. J. and Visser, J. H. (2000) Jounrnal of Chemical Ecology, 26, 2643-2655).
The olfactory behaviour of thrips toward volatile compounds was evaluated in a glass Y-tube olfactometer following the method described by de Kogel et al. (de Kogel, W. J., Koschier, E. H. and Visser, J. H. Proc. Exper. & Appl. Entomol., N. E. V. Amsterdam, (1999) 10, 131-135.) and Koschler et al. (Koschier, E. H., De Kogel, W. J. and Visser, J. H. (2000) Journal of Chemical Ecology, 26, 2643-2655.). The Y-tube has two branching arms at an angle of 45° leading into a single tube, all 60 mm long, with an internal diameter of 5 mm. The arms of the Y-tube were connected to glass Wheaton Micro Kit® adapters that were in turn attached to 4 ml glass vials each containing a 1 cm^2 piece of filter paper (Whatman No. 1). The Y-tube and Wheaton apparatus were placed in a grey-box (to prevent external stimuli influencing thrips' behaviour), located in a darkened, air-conditioned room (22±3° C.). The Y-tube was placed at an inclining position of 25° between the Y-tube and horizontal plane and illuminated from above by a halogen lamp (780 lux). One microliter of the volatile compounds, either undiluted or diluted in hexane (95%, Pronalys AR), was applied to filter paper in one vial, while 1 μl of hexane was applied to filter paper held in the second vial. Air was drawn through activated charcoal before entering the Wheaton apparatus and Y-tube using a suction pump (AR Harris Co. Ltd, Christchurch) producing an airflow of 5 cm/s through each arm and 10 cm/s at the base of the Y-tube. Air was drawn through for 30 min before introducing the first thrips. Connections between the activated charcoal, Wheaton apparatus, Y-tube and suction pump consisted of silicone tubing.
An individual female Frankliniella occidentalis thrips of unknown age, that had been starved overnight, was released into the Y-tube using a small aspirator. The aspirator was made by placing a 1 ml pipette tip over the end of silicone tubing (5 mm diameter) the end of which was covered with fine mesh; the pipette tip was cut so it projected 5 mm beyond the end of the silicone tubing. A thrips was sucked up into the pipette tip, which was then placed at the base of the Y-tube. Most thrips walked up into the Y-tube within a few seconds, at which time the silicone air suction tubing was reconnected to the glass Y. The choice between clean or odour laden airflow was recorded when the thrips reached the far end of one arm and only those thrips that made the choice within 3 min were recorded. After every 5 thrips the Y-tube and Wheaton apparatus were rotated […] to avoid position effects. After 25 choices were recorded, the Y-tube and Wheaton apparatus were thoroughly cleaned with acetone (99.5%, BDH) and allowed to dry before repeating the experiment. Each compound and dilution was replicated 3 times.

[2] = test system: Frankliniella occidentalis; experiment: Greenhouse trials with water traps or yellow sticky traps; type: in vivo; conditions: 24 h, capsicum greenhouse, t-value in brackets in same cell
Description: Greenhouse trials were undertaken using water traps similar to those used in the field trials (Example 2), or yellow sticky traps (Veg-Gro Supplies Ltd, Auckland) to examine the response of thrips to volatile compounds. The greenhouse, located in Auckland, is ≈88×200 m, constructed of glass, and is used to grow capsicum (Capsicum annuum var. Special, Fiesta, Boogie and Stirit). Water traps were placed 20 to 24 m apart within a row and 24 m apart between rows. There were 6 baited water traps for each compound tested and 6 water-only traps randomly positioned in a 6×2 grid in the greenhouse. Traps were positioned just above the crop canopy. Water traps (2 L containers, 16×16×8.5 cm) were assembled as described in Example 2 and left in the greenhouse for 24 h, after which time the containers were sealed for transport to a laboratory. Insects from each water trap were transferred to 5 ml glass tubes containing 75% ethanol within 24 h of collecting them from the greenhouse. Catches from each treatment were analysed under a stereomicroscope (100×) and the proportion of Frankliniella occidentalis was determined.
Yellow sticky traps (24.4×20 cm) were treated with a compound or water using a 30 ml spray mist dripulator (Arthur Holmes, Wellington) held 10 cm away from the sticky trap. Four sprays were applied to each side, coating the sticky trap in approximately 1 ml of water or compound. Sticky traps sprayed with the same treatment were separated using black metal foldback clips (19 mm, Celco), suspended within a cardboard box (29.5×22.3×30.2 cm), which was in turn sealed within a plastic bag for transport to the greenhouse. Traps were suspended in the greenhouse just above the crop canopy within 3 h after spraying, using the same layout as for the water traps (20 to 24 m apart within a row, 24 m between rows, in a 6×2 grid). After 24 h the traps were collected by wrapping each trap in plastic wrap for transport to the laboratory. The total number of thrips on the traps were counted using 10× magnification. Thrips were removed from the sticky traps using De-Solv-it® and Johnsons baby oil®. A subsample from each treatment was further analysed under a stereomicroscope (100×) and the proportion of Frankliniella occidentalis was determined.

Thrips obscuratus = conditions: Penman et al. 1982; cited from earlier work
[3] = test system: Frankliniella occidentalis; conditions: literature; anisaldehyde with blue sticky or yellow water traps; WO 03/055309 Y-tube; cited from earlier work
Thrips tabaci = conditions: cited from earlier work
Thrips hawaiiensis = conditions: field trials; cited from earlier work
Thrips coloratus = conditions: field trials; cited from earlier work
Thrips flavus = conditions: cited from earlier work

| Compound | MAC (%) = Minimum Active Concentration to elicit a response from thrips (P < 0.05) ([1]; 1 µl undiluted or diluted in hexane) [%] | % Response: percentage of thrips to walk up odour-laden arm ([1]; same cell prints a '(t value)' in brackets) | Average ratio of thrips caught relative to water treated traps ([2]; Water trap, around 66% of thrips caught were Frankliniella occidentalis) | Average ratio of thrips caught relative to water treated traps ([2]; Yellow sticky trap, about 1 ml sprayed, >95% of thrips caught were Frankliniella occidentalis) | Attractancy to Thrips obscuratus (literature) (Thrips obscuratus) | Attractancy to Frankliniella occidentalis (literature) [3] | Attractancy to Thrips tabaci (literature) (Thrips tabaci) | Attractancy to Thrips hawaiiensis (literature) (Thrips hawaiiensis) | Attractancy to Thrips coloratus (literature) (Thrips coloratus) | Attractancy to Thrips flavus (literature) (Thrips flavus) |
| --- | --- | --- | --- | --- | --- | --- | --- | --- | --- | --- |
| CCOC(=O)c1cccnc1 [Ethyl nicotinate, reference compound] | 0.01 | 60.0 (0.043) % | 1 (0.1) | 1.1 (0.4) | potent attractant | less attractive | varied in its attractiveness |  |  |  |
| CCOC(=O)c1ccccc1N [ethyl anthranilate] |  |  |  |  |  |  |  | attractant | attractant | attractant |
| COC(=O)c1ccccc1N [methyl anthranilate] |  |  |  |  |  |  | not for Thrips tabaci | attractant | attractant |  |
